Assay results as given in patent US5484934A, “Isothiazole derivatives, a process for production thereof and uses thereof” (Nihon Nohyaku Co., Ltd., priority 1992, dated 1996).

What was measured:
Coriolus versicolor = experiment: Inhibition of hypha growth on malt extract agar, Coriolus versicolor; type: cell-based; conditions: Trametes versicolor, 28±2° C., 2 to 10 days, read-out: Controlling effect (growth inhibition rate) COV
[1] = test system: Pseudoperonospora cubensis; experiment: Controlling effect on cucumber Downy mildew; type: in vivo; conditions: 168 h, 200 ppm spray, inoculation after 24 hours, read-out: Controlling effect Pc (cucumber downy mildew)
Phytophthora infestants = experiment: whole plant or invertebrate; type: in vivo; conditions: 168 h; read-out: Controlling effect Pi (tomato late blight)
Pyricularia oryzae = experiment: whole plant or invertebrate; type: in vivo; conditions: 168 h, read-out: Controlling effect Ps (rice blast)
Botrytis cinerea = experiment: Controlling effect (curing effect) on cucumber gray mold; type: in vivo; conditions: 72 h, immersion of inoculated cotyledons, 15° C., read-out: Controlling effect Bc (cucumber gray mold)
Protocol: Controlling effect (curing effect) on cucumber gray mold The cotyledons of potted cucumber plants at the 1 leaf stage were cut off and each of them was inoculated with a mycelial tuft of gray mold fungus (Botrytis cinerea) cultured on PSA medium. After having been placed in a moist chamber at 15° C. for 24 hours, the cotyledons were immersed in a 200 ppm liquid chemical containing each compound of the present invention as active ingredient. […]

Alternaria mali = experiment: Inhibition of hypha growth on malt extract agar, Alternaria mali; conditions: read-out: Controlling effect (growth inhibition rate) ALM
Protocol: (§1) Each preparation to be tested was added to malt extract agar medium to adjust the concentration to 50 ppm, and the resulting mixture was dispensed into Petri dishes. As an inoculum, a prepared mycerial tuft of each test fungus was punched out together with agar by means of a 4-mm-diameter cork borer and inoculated on medium. The incubation temperature was adjusted to 28±2° .C (or 18±2° C. in the case of Selupula lacrymas).
(§2) The diameter of mycerial tuft was measured 2 to 10 days after the inoculation, and the inhibition rate of hypha growth (the following equation) was measured.
(§3) The controlling effect was evaluated according to the following criterion.

Serpula lacrymans = experiment: Inhibition of hypha growth on malt extract agar, Serpula lacrymans; conditions: read-out: Controlling effect (growth inhibition rate) SEL
Protocol: as §1, §2

Aspergillus niger = experiment: Inhibition of hypha growth on malt extract agar, Aspergillus niger; conditions: read-out: Controlling effect (growth inhibition rate) ASN
Protocol: as §1, §2, §3

Trichoderma viride = experiment: Inhibition of hypha growth on malt extract agar, Trichoderma viride; conditions: read-out: Controlling effect (growth inhibition rate) TRV
Protocol: as §1, §2

Fusarium oxysporum = experiment: Inhibition of hypha growth on malt extract agar, Fusarium oxysporum; conditions: read-out: Controlling effect (growth inhibition rate) FUO
Protocol: as §1, §2, §3

Rhizopus nigricans = experiment: Inhibition of hypha growth on malt extract agar, Rhizopus nigricans; conditions: Rhizopus stolonifer, read-out: Controlling effect (growth inhibition rate) RHS
Protocol: as §1, §2

Tyromyces palustris = experiment: Inhibition of hypha growth on malt extract agar, Tyromyces palustris; conditions: read-out: Controlling effect (growth inhibition rate) TYP
Protocol: as §1, §2

Chaetomium globosum = experiment: Inhibition of hypha growth on malt extract agar, Chaetomium globosum; conditions: read-out: Controlling effect (growth inhibition rate) CHG
Protocol: as §1, §2, §3

[2] = test system: Cladosporium cladosporioides; experiment: Inhibition of hypha growth on malt extract agar, Cladosporium cladosporioides; conditions: read-out: Controlling effect (growth inhibition rate) CLC
Protocol: as §1, §2

COc1nsc([S+](C)[O-])c1C#N (stereo not drawn) [Compound 15, 3-methoxy-4-cyano-5-methylsulfoxyisothiazole]
inhibition at 50 ppm (Coriolus versicolor): 100%
pest or weed control at 200 ppm [1]: 95 to 100%
pest or weed control at 200 ppm (Phytophthora infestants): 95 to 100%
pest or weed control at 200 ppm (Pyricularia oryzae): 95 to 100%
pest or weed control at 200 ppm (Botrytis cinerea): 60 to 79%
inhibition at 50 ppm (Alternaria mali): 100%
inhibition at 50 ppm (Serpula lacrymans): 100%
inhibition at 50 ppm (Aspergillus niger): 100%
inhibition at 50 ppm (Trichoderma viride): 100%
inhibition at 50 ppm (Fusarium oxysporum): 100%
inhibition at 50 ppm (Rhizopus nigricans): 100%
inhibition at 50 ppm (Tyromyces palustris): 100%
inhibition at 50 ppm (Chaetomium globosum): 100%
inhibition at 50 ppm [2]: 100%

C#CCOc1nsc([S+](C)[O-])c1C#N (stereo not drawn) [Compound 16]
inhibition at 50 ppm (Coriolus versicolor): 85 to 99%
pest or weed control at 200 ppm [1]: 95 to 100%
pest or weed control at 200 ppm (Phytophthora infestants): 95 to 100%
pest or weed control at 200 ppm (Pyricularia oryzae): 80 to 94%
pest or weed control at 200 ppm (Botrytis cinerea): 60 to 79%
inhibition at 50 ppm (Alternaria mali): 100%
inhibition at 50 ppm (Serpula lacrymans): 100%
inhibition at 50 ppm (Aspergillus niger): 100%
inhibition at 50 ppm (Trichoderma viride): 100%
inhibition at 50 ppm (Fusarium oxysporum): 85 to 99%
inhibition at 50 ppm (Rhizopus nigricans): 100%
inhibition at 50 ppm (Tyromyces palustris): 100%
inhibition at 50 ppm (Chaetomium globosum): 100%
inhibition at 50 ppm [2]: 100%

CC(C)Oc1nsc(S(=O)(=O)C(F)F)c1C#N [Compound 144]
inhibition at 50 ppm (Coriolus versicolor): 100%
pest or weed control at 200 ppm [1]: 95 to 100%
pest or weed control at 200 ppm (Phytophthora infestants): 95 to 100%
pest or weed control at 200 ppm (Pyricularia oryzae): 95 to 100%
pest or weed control at 200 ppm (Botrytis cinerea): 95 to 100%
inhibition at 50 ppm (Alternaria mali): 100%
inhibition at 50 ppm (Serpula lacrymans): 100%
inhibition at 50 ppm (Aspergillus niger): 100%
inhibition at 50 ppm (Trichoderma viride): 100%
inhibition at 50 ppm (Fusarium oxysporum): 100%
inhibition at 50 ppm (Rhizopus nigricans): 100%
inhibition at 50 ppm (Tyromyces palustris): 100%
inhibition at 50 ppm (Chaetomium globosum): 100%
inhibition at 50 ppm [2]: 100%

COc1nsc(S(=O)(=O)C(F)F)c1C#N [Compound 140]
inhibition at 50 ppm (Coriolus versicolor): 100%
pest or weed control at 200 ppm [1]: 95 to 100%
pest or weed control at 200 ppm (Phytophthora infestants): 95 to 100%
pest or weed control at 200 ppm (Pyricularia oryzae): 95 to 100%
pest or weed control at 200 ppm (Botrytis cinerea): 95 to 100%
inhibition at 50 ppm (Alternaria mali): 100%
inhibition at 50 ppm (Serpula lacrymans): 100%
inhibition at 50 ppm (Aspergillus niger): 100%
inhibition at 50 ppm (Trichoderma viride): 100%
inhibition at 50 ppm (Fusarium oxysporum): 100%
inhibition at 50 ppm (Rhizopus nigricans): 100%
inhibition at 50 ppm (Tyromyces palustris): 100%
inhibition at 50 ppm (Chaetomium globosum): 100%
inhibition at 50 ppm [2]: 100%

COc1nsc(S(=O)(=O)c2ccc(Cl)cc2)c1C#N [Compound 93]
inhibition at 50 ppm (Coriolus versicolor): 100%
pest or weed control at 200 ppm [1]: 95 to 100%
pest or weed control at 200 ppm (Phytophthora infestants): 95 to 100%
pest or weed control at 200 ppm (Pyricularia oryzae): 95 to 100%
pest or weed control at 200 ppm (Botrytis cinerea): 60 to 79%
inhibition at 50 ppm (Alternaria mali): 100%
inhibition at 50 ppm (Serpula lacrymans): 100%
inhibition at 50 ppm (Aspergillus niger): 100%
inhibition at 50 ppm (Trichoderma viride): 100%
inhibition at 50 ppm (Fusarium oxysporum): 100%
inhibition at 50 ppm (Rhizopus nigricans): 100%
inhibition at 50 ppm (Tyromyces palustris): 100%
inhibition at 50 ppm (Chaetomium globosum): 100%
inhibition at 50 ppm [2]: 100%

C#CCOc1nsc(S(=O)(=O)C(F)F)c1C#N [Compound 148]
inhibition at 50 ppm (Coriolus versicolor): 100%
pest or weed control at 200 ppm [1]: 80 to 94%
pest or weed control at 200 ppm (Phytophthora infestants): 95 to 100%
pest or weed control at 200 ppm (Pyricularia oryzae): 95 to 100%
pest or weed control at 200 ppm (Botrytis cinerea): 60 to 79%
inhibition at 50 ppm (Alternaria mali): 100%
inhibition at 50 ppm (Serpula lacrymans): 100%
inhibition at 50 ppm (Aspergillus niger): 100%
inhibition at 50 ppm (Trichoderma viride): 100%
inhibition at 50 ppm (Fusarium oxysporum): 100%
inhibition at 50 ppm (Rhizopus nigricans): 100%
inhibition at 50 ppm (Tyromyces palustris): 100%
inhibition at 50 ppm (Chaetomium globosum): 100%
inhibition at 50 ppm [2]: 100%
